Measured values reported in ChEMBL document CHEMBL1155460, “Prediction of acetylcholinesterase inhibitors and characterization of correlative molecular descriptors by machine learning methods” (Eur J Med Chem, 2010).

target: Acetylcholinesterase (Homo sapiens, UniProt P22303)
Sequence (P22303 whole entry): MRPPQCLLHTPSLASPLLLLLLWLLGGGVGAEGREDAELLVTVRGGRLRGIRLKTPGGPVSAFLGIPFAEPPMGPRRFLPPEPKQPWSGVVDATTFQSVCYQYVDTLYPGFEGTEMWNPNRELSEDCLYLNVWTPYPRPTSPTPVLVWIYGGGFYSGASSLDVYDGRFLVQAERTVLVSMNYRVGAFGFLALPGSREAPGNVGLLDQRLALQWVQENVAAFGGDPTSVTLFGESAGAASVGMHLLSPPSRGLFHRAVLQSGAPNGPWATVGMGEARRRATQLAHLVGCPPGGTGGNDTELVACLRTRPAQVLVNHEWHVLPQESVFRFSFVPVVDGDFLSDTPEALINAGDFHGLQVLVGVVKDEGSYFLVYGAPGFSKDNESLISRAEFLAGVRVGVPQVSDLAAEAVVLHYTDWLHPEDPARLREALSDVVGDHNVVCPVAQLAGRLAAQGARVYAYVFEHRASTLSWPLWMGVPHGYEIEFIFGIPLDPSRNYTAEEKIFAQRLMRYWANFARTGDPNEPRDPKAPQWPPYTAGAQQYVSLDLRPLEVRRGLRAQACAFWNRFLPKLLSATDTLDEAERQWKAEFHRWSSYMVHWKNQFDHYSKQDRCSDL

Structure (SMILES) | IC50
COc1cc2c(cc1OC)C(=O)C(CC1CCN(c3ccccc3)CC1)C2 (stereo not drawn) | 5.7 nM
O=C(CCC1CCN(Cc2ccccc2)CC1)c1ccc2c(c1)OCO2 | 30 nM
c1ccc(C2=NNC(NCN3CCCCC3)=NC2)cc1 | 47000 nM
O=C(CCC1CCN(Cc2ccccc2)CC1)c1ccc2c(c1)CCCN2 | 54 nM
CN(CCCCCNc1ccc(-c2ccccc2)nn1)Cc1ccccc1 | 740 nM
O=C(CCc1c[nH]c2ccccc12)NCCCCCCCNc1c2c(nc3ccccc13)CCCC2 | 0.06 nM
COc1ccccc1CN1CCC(CCC(=O)c2ccc3c(c2)NCCCC3)CC1 | 2650 nM
c1ccc(-c2cc(-c3ccccc3)c(NCCN3CCOCC3)nn2)cc1 | 260000 nM
c1ccc2c(NCCCCCCNc3c4c(nc5ccccc35)CCCC4)c3c(nc2c1)CCCC3 | 1.4 nM
Nc1c2c(nc3ccccc13)-c1ccccc1CC2 | 37000 nM
CN(C)CCCCCCCCCNc1c2c(nc3ccccc13)CCCC2 | 71 nM
O=C(Cc1c[nH]c2ccccc12)NCCCCCCCNc1c2c(nc3cc(Cl)ccc13)CCCC2 | 0.2 nM
O=C(CCC1CCN(Cc2ccc(F)cc2)CC1)c1ccc2c(c1)CCN2 | 89 nM
CC(=O)N(CCC1CCN(Cc2ccccc2)CC1)c1ccncc1 | 108 nM
COc1ccccc1CN1CCC(CCC(=O)c2ccc3c(c2)CCN3)CC1 | 812 nM
CC(=O)Nc1ccc2c(c1)C(=O)N(CCC1CCN(Cc3ccccc3)CC1)C2=O | 2.8 nM
CCN(CCOCCNC(=O)NCc1ccccc1)CC1CCCCC1 | 10000 nM
O=C1Cc2ccccc2CN1CCC1CCN(Cc2ccccc2)CC1 | 17 nM
Nc1cccc2c1C(=O)N(CCC1CCN(Cc3ccccc3)CC1)C2=O | 11 nM
CCN1CC[C@@]2(C)c3cc(OC(=O)NC)ccc3C[C@@H]12 | 38 nM
CC(=O)Nc1cccc2n1cc(-c1cccc(OC(=O)N(C)C)c1)[n+]2C | 2500 nM
Cc1cccc(CN2CCC(CCC(=O)c3ccc4c(c3)CCN4)CC2)c1 | 50 nM
NCCCCCCCCCCNc1c2c(nc3ccccc13)CCCC2 | 147 nM
O=C(CCc1c[nH]c2ccccc12)NCCCCCCNc1c2c(nc3ccccc13)CCCC2 | 0.02 nM
c1ccc(-c2cnc(NCN3CCCCC3)nn2)cc1 | 60000 nM
COc1ccccc1CN(C)CCCN(C)CCCNCCC[n+]1c(-c2ccccc2)c2cc(N)ccc2c2ccc(N)cc21 | 894 nM
CN(CCOCCNC(=S)Nc1ccc(OC(F)(F)F)cc1)Cc1ccccc1 | 1000 nM

Structure (SMILES) | IC50
c1ccc2c(NCCCCCCCCNc3c4c(nc5ccccc35)CCCC4)ccnc2c1 | 8.8 nM
CN(CCOCCCNC(=S)NC(=O)c1ccccc1)Cc1ccccc1 | 1100 nM
COc1cccc2n1cc(-c1cccc(OC(=O)N(C)C)c1)[n+]2C | 20500 nM
CN(CCOCCNC(=S)NC1CCCCC1)Cc1ccccc1 | 1400 nM
O=C1c2ccccc2CCN1CCC1CCN(Cc2ccccc2)CC1 | 1000 nM
CCCc1cc(=NCCC2CCN(Cc3ccccc3)CC2)[nH]nc1-c1ccccc1 | 61 nM
O=C(CCC1CCN(Cc2cccc(F)c2)CC1)c1ccc2c(c1)NCCCC2 | 145 nM
CCCCC1(O)c2nc3ccccc3c(N)c2CC1C (stereo not drawn) | 91000 nM
O=C(CCC1CCN(Cc2ccccc2F)CC1)c1ccc2c(c1)CCN2 | 43 nM
CNC(=O)Oc1cccc(CN(C)CCCCCCCOc2ccc3c(c2)OC/C(=C/c2cc(O)c(O)c(O)c2)C3=O)c1 | 9.81 nM
Nc1cc(-c2ccccc2)nnc1NCCN1CCOCC1 | 270000 nM
CNC(=O)Oc1cccc(CN(C)CCCOc2ccc3c(c2)O/C(=C\c2cc(O)c(O)c(O)c2)C3=O)c1 | 2.99 nM
c1ccc(CN2CCC(CCNc3ccc(-c4ccccc4)nn3)CC2)cc1 | 120 nM
CN(CCNc1ccc(-c2ccccc2)nn1)Cc1ccccc1 | 170000 nM
Nc1c2c(nc3ccccc13)CCCCC2 | 39 nM
CC(C)c1cc(-c2ccccc2)nnc1NCCC1CCN(Cc2ccccc2)CC1 | 430 nM
CCCCCCNC(=O)Oc1cccc(CN(CCC)CCCOc2ccc3c(=O)c4ccccc4oc3c2)c1 | 400 nM
O=C(NCCCCCNc1c2c(nc3cc(Cl)ccc13)CCCC2)c1c[nH]c2ccccc12 | 180 nM
c1cnc2nc3c(c(NCCCCCCCNc4c5c(nc6ncccc46)CCCC5)c2c1)CCCC3 | 1.3 nM
O=C1c2ccccc2C(=O)N1CCC1CCN(Cc2ccccc2)CC1 | 80 nM
Fc1ccc(N(Cc2ccc3c(c2)OCO3)C(=S)Nc2cccc(C(F)(F)F)c2)cc1 | 8000 nM
c1ccc2c(NCCCCCCCNc3ccncc3)c3c(nc2c1)CCCC3 | 12.8 nM
CC1Cc2c(nc3ccccc3c2N)C1(C)O (stereo not drawn) | 134000 nM
O=C(c1ccccc1)c1ccc2c(c1)C(=O)N(CCC1CCN(Cc3ccccc3)CC1)C2=O | 2.4 nM
O=C(CCC1CCN(Cc2ccccc2Cl)CC1)c1ccc2c(c1)CCN2 | 76 nM
O=C(CCOCCc1c[nH]c2ccccc12)NCCCCCCCNc1c2c(nc3cc(Cl)ccc13)CCCC2 | 3 nM
